In brackets after ≈: the same amount, converted by molar mass.
Key:
Pseudomonas aeruginosa [1] = assay: Antibacterial activity against Pseudomonas aeruginosa 264-101354 assessed as fractional inhibitory concentration incubated for 18 hrs in presence of doxycycline by broth microdilution assay; type: functional
Pseudomonas aeruginosa [2] = assay: Antibacterial activity against Pseudomonas aeruginosa 264-101354 assessed as fractional inhibitory concentration incubated for 18 hrs in presence of chloramphenicol by broth microdilution assay; type: functional
Enterococcus faecalis = assay: Antibacterial activity against Enterococcus faecalis ATCC 29212 assessed as reduction in bacterial growth incubated for 18 hrs by broth microdilution assay; type: functional
Escherichia coli [3] = assay: Antibacterial activity against Escherichia coli CAN-ICU 63074 (AMK 32) assessed as reduction in bacterial growth incubated for 18 hrs by broth microdilution assay; type: functional
Pseudomonas aeruginosa [4] = assay: Antibacterial activity against gentamicin-resistant Pseudomonas aeruginosa CAN-ICU 62308 assessed as reduction in bacterial growth incubated for 18 hrs by broth microdilution assay; type: functional
Acinetobacter baumannii [5] = assay: Antibacterial activity against Acinetobacter baumannii CAN-ICU 63169 assessed as reduction in bacterial growth incubated for 18 hrs by broth microdilution assay; type: functional
Pseudomonas aeruginosa [6] = assay: Antibacterial activity against Pseudomonas aeruginosa 100036 assessed as fractional inhibitory concentration incubated for 18 hrs in presence of doxycycline by broth microdilution assay; type: functional
Pseudomonas aeruginosa [7] = assay: Antibacterial activity against Pseudomonas aeruginosa 259-96918 assessed as fractional inhibitory concentration index in presence of doxycycline incubated for 18 hrs by broth microdilution assay; type: functional
Pseudomonas aeruginosa [8] = assay: Antibacterial activity against Pseudomonas aeruginosa 101885 assessed as reduction in bacterial growth incubated for 18 hrs by broth microdilution assay; type: functional
Pseudomonas aeruginosa [9] = assay: Antibacterial activity against Pseudomonas aeruginosa 259-96918 assessed as reduction in bacterial growth incubated for 18 hrs by broth microdilution assay; type: functional
Pseudomonas aeruginosa [10] = assay: Antibacterial activity against Pseudomonas aeruginosa 101243 assessed as reduction in bacterial growth incubated for 18 hrs by broth microdilution assay; type: functional
Pseudomonas aeruginosa [11] = assay: Antibacterial activity against Pseudomonas aeruginosa PAO1 assessed as reduction in bacterial growth by measuring trimethoprim MIC at <=10 uM in presence of trimethoprim incubated for 18 hrs by broth microdilution assay based checkerboard assay (reference value: 64 microg/ml); type: functional; details: dose microM <=10
Pseudomonas aeruginosa [12] = assay: Antibacterial activity against Pseudomonas aeruginosa PAO1 assessed as reduction in bacterial growth by measuring chloramphenicol MIC at <=[…] uM in presence of chloramphenicol incubated for 18 hrs by broth microdilution assay based checkerboard assay (reference value: […] microg/ml); type: functional; details: dose microM <=10
Pseudomonas aeruginosa [13] = assay: Antibacterial activity against Pseudomonas aeruginosa PAO1 assessed as reduction in bacterial growth by measuring erythromycin MIC at <=10 uM in presence of erythromycin incubated for 18 hrs by broth microdilution assay based checkerboard assay (reference value: 256 microg/ml); type: functional; details: dose microM <=10
Pseudomonas aeruginosa [14] = assay: Antibacterial activity against Pseudomonas aeruginosa PAO1 assessed as reduction in bacterial growth by measuring pleuromutilin MIC at <=10 uM in presence of pleuromutilin incubated for 18 hrs by broth microdilution assay based checkerboard assay (reference value: 512 microg/ml); type: functional; details: dose microM <=10
Pseudomonas aeruginosa [15] = assay: Antibacterial activity against Pseudomonas aeruginosa PAO1 assessed as fractional inhibitory concentration index in presence of Linezolid incubated for 18 hrs by broth microdilution assay based checkerboard assay; type: functional
Pseudomonas aeruginosa [16] = assay: Antibacterial activity against Pseudomonas aeruginosa PAO1 assessed as fractional inhibitory concentration index in presence of Trimethoprim incubated for 18 hrs by broth microdilution assay based checkerboard assay; type: functional
Pseudomonas aeruginosa [17] = assay: Antibacterial activity against Pseudomonas aeruginosa PAO1 assessed as fractional inhibitory concentration index in presence of Aztreonam incubated for 18 hrs by broth microdilution assay based checkerboard assay; type: functional
Pseudomonas aeruginosa [18] = assay: Antibacterial activity against Pseudomonas aeruginosa PAO1 assessed as fractional inhibitory concentration index in presence of Nitrofurantoin incubated for 18 hrs by broth microdilution assay based checkerboard assay; type: functional
Pseudomonas aeruginosa [19] = assay: Antibacterial activity against Pseudomonas aeruginosa 101885 assessed as fractional inhibitory concentration index in presence of doxycycline incubated for 18 hrs by broth microdilution assay; type: functional
Pseudomonas aeruginosa [20] = assay: Antibacterial activity against Pseudomonas aeruginosa 101885 assessed as fractional inhibitory concentration index in presence of chloramphenicol incubated for 18 hrs by broth microdilution assay; type: functional
Pseudomonas aeruginosa [21] = assay: Antibacterial activity against Pseudomonas aeruginosa 114228 assessed as fractional inhibitory concentration index in presence of chloramphenicol incubated for 18 hrs by broth microdilution assay; type: functional
Acinetobacter baumannii [22] = assay: Antibacterial activity against Acinetobacter baumannii ATCC 17978 assessed as potentiation of doxycycline-induced antibacterial activity by measuring doxycycline MIC at 10 uM incubated for 18 hrs in presence of doxycycline by broth microdilution assay (reference value: 0.25 ug/ml); type: functional
Acinetobacter baumannii [23] = assay: Antibacterial activity against Acinetobacter baumannii ATCC 17978 assessed as fractional inhibitory concentration index in presence of doxycycline incubated for 18 hrs by broth microdilution assay; type: functional
Acinetobacter baumannii [24] = assay: Antibacterial activity against Acinetobacter baumannii ATCC 17978 assessed as fractional inhibitory concentration index in presence of chloramphenicol incubated for 18 hrs by broth microdilution assay; type: functional
Escherichia coli [25] = assay: Antibacterial activity against Escherichia coli ATCC 25922 assessed as potentiation of doxycycline-induced antibacterial activity by measuring doxycycline MIC at 10 uM incubated for 18 hrs in presence of doxycycline by broth microdilution assay (reference value: 0.5 ug/ml); type: functional
Escherichia coli [26] = assay: Antibacterial activity against Escherichia coli ATCC 25922 assessed as fractional inhibitory concentration index in presence of doxycycline incubated for 18 hrs by broth microdilution assay; type: functional
Escherichia coli [27] = assay: Antibacterial activity against Escherichia coli ATCC 25922 assessed as potentiation of chloramphenicol-induced antibacterial activity by measuring chloramphenicol MIC at 10 uM incubated for 18 hrs in presence of chloramphenicol by broth microdilution assay (reference value: 2 ug/ml); type: functional
Klebsiella pneumoniae [28] = assay: Antibacterial activity against Klebsiella pneumoniae ATCC 16381 assessed as fractional inhibitory concentration index in presence of doxycycline incubated for 18 hrs by broth microdilution assay; type: functional
Klebsiella pneumoniae [29] = assay: Antibacterial activity against Klebsiella pneumoniae ATCC 16381 assessed as fractional inhibitory concentration index in presence of chloramphenicol incubated for 18 hrs by broth microdilution assay; type: functional
Enterobacter cloacae [30] = assay: Antibacterial activity against Enterobacter cloacae ATCC 117029 assessed as fractional inhibitory concentration index in presence of doxycycline incubated for 18 hrs by broth microdilution assay; type: functional
[31] = Hemolytic activity in porcine erythrocyte at 1024 ug/ml incubated for 1 hr; type: ADME, cell-based, Sus scrofa; details: pig, porcine erythrocytes, at 1024 µg/mL, read-out: Activity
Escherichia coli [32] = assay: Antibacterial activity against Escherichia coli ATCC 25922 assessed as fractional inhibitory concentration index in presence of chloramphenicol incubated for 18 hrs by broth microdilution assay; type: functional
Acinetobacter baumannii [33] = assay: Antibacterial activity against Acinetobacter baumannii ATCC 17978 assessed as reduction in bacterial growth incubated for 18 hrs by broth microdilution assay; type: functional
Enterobacter cloacae [34] = assay: Antibacterial activity against Enterobacter cloacae ATCC 117029 assessed as reduction in bacterial growth incubated for 18 hrs by broth microdilution assay; type: functional
Pseudomonas aeruginosa [35] = assay: Potentiation of doxycycline-induced antibacterial activity against Pseudomonas aeruginosa 264-101354 incubated for 18 hrs in presence of doxycycline by broth microdilution assay; type: functional, organism-based; details: dose 1-32 µg/ml

Row | SMILES | MIC (Enterococcus faecalis) | MIC (Escherichia coli [3]) | MIC (Pseudomonas aeruginosa [4]) | MIC (Acinetobacter baumannii [5]) | fractional inhibitory concentration index (FICI) (Pseudomonas aeruginosa [7]) | MIC (Pseudomonas aeruginosa [8]) | MIC (Pseudomonas aeruginosa [9]) | MIC (Pseudomonas aeruginosa [10]) | MIC (Pseudomonas aeruginosa [11]) | MIC (Pseudomonas aeruginosa [12]) | MIC (Pseudomonas aeruginosa [13]) | MIC (Pseudomonas aeruginosa [14]) | fractional inhibitory concentration index (FICI) (Pseudomonas aeruginosa [15]) | fractional inhibitory concentration index (FICI) (Pseudomonas aeruginosa [16]) | fractional inhibitory concentration index (FICI) (Pseudomonas aeruginosa [17]) | fractional inhibitory concentration index (FICI) (Pseudomonas aeruginosa [18]) | fractional inhibitory concentration index (FICI) (Pseudomonas aeruginosa [19]) | fractional inhibitory concentration index (FICI) (Pseudomonas aeruginosa [20]) | fractional inhibitory concentration index (FICI) (Pseudomonas aeruginosa [21]) | MIC (Acinetobacter baumannii [22]) | also measured
1 | NC[C@H]1O[C@H](O[C@H]2[C@H](O)[C@@H](O[C@H]3O[C@H](CO)[C@@H](O)[C@H](N)[C@H]3O)[C@H](N)C[C@@H]2N)[C@H](N)C[C@@H]1O [TOBRAMYCIN] | 8 µg/mL (≈ 17.1 µM) | 8 µg/mL (≈ 17.1 µM) | 16 µg/mL (≈ 34.2 µM) | 32 µg/mL (≈ 68.4 µM) | 1.125 | 1 µg/mL (≈ 2.14 µM) | 256 µg/mL (≈ 548 µM) | 128 µg/mL (≈ 274 µM) | – | – | – | – | – | – | – | – | – | – | – | – | FIC (Pseudomonas aeruginosa [1]): 0.5; FIC (Pseudomonas aeruginosa [2]): 0.5; FIC (Pseudomonas aeruginosa [6]): 0.5
2 | CO[C@H]1/C=C/O[C@@]2(C)Oc3c(C)c(O)c4c(O)c(c(/C=N/N5CCN(Cc6cn(CCCCCCCCCCCCO[C@@H]7[C@@H](O[C@H]8O[C@H](CO)[C@@H](O)[C@H](N)[C@H]8O)[C@H](N)C[C@H](N)[C@H]7O[C@H]7O[C@H](CN)[C@@H](O)C[C@H]7N)nn6)CC5)c(O)c4c3C2=O)NC(=O)/C(C)=C\C=C\[C@H](C)[C@H](O)[C@@H](C)[C@@H](O)[C@@H](C)[C@H](OC(C)=O)[C@@H]1C.O=C(O)C(F)(F)F.O=C(O)C(F)(F)F.O=C(O)C(F)(F)F.O=C(O)C(F)(F)F.O=C(O)C(F)(F)F | > 32 µg/mL | 32 µg/mL | > 32 µg/mL | > 32 µg/mL | <0.133 | 256 µg/mL | > 128 µg/mL | 256 µg/mL | 16 µg/mL | 2 µg/mL | 8 µg/mL | 256 µg/mL | 0.28 | 0.28 | 1.03 | 0.53 | 0.094 | 0.07 | <0.156 | 0.25 µg/mL | fractional inhibitory concentration index (FICI) (Acinetobacter baumannii [23]): 1.25; fractional inhibitory concentration index (FICI) (Acinetobacter baumannii [24]): 0.75; MIC (Escherichia coli [25]): 0.25 µg/mL; fractional inhibitory concentration index (FICI) (Escherichia coli [26]): 0.625; MIC (Escherichia coli [27]): 1 µg/mL; fractional inhibitory concentration index (FICI) (Klebsiella pneumoniae [28]): <0.516; fractional inhibitory concentration index (FICI) (Klebsiella pneumoniae [29]): <0.281; fractional inhibitory concentration index (FICI) (Enterobacter cloacae [30]): 0.375; hemolysis at 1 h, 1024 ug/ml [31]: < 2%; fractional inhibitory concentration index (FICI) (Escherichia coli [32]): 0.625; MIC (Acinetobacter baumannii [33]): 64 µg/mL; MIC (Enterobacter cloacae [34]): 16 µg/mL; Activity (Pseudomonas aeruginosa [35]): Dose-dependent effect
3 | CO[C@H]1/C=C/O[C@@]2(C)Oc3c(C)c(O)c4c(O)c(c(/C=N/N5CCN(Cc6cn(CCCCCCO[C@@H]7[C@@H](O[C@H]8O[C@H](CO)[C@@H](O)[C@H](N)[C@H]8O)[C@H](N)C[C@H](N)[C@H]7O[C@H]7O[C@H](CN)[C@@H](O)C[C@H]7N)nn6)CC5)c(O)c4c3C2=O)NC(=O)/C(C)=C\C=C\[C@H](C)[C@H](O)[C@@H](C)[C@@H](O)[C@@H](C)[C@H](OC(C)=O)[C@@H]1C.Cl.Cl.Cl.Cl.Cl | > 32 µg/mL | > 32 µg/mL | > 32 µg/mL | > 32 µg/mL | <0.156 | 256 µg/mL | > 128 µg/mL | ≥ 256 µg/mL | 32 µg/mL | 1 µg/mL | 32 µg/mL | 128 µg/mL | 0.15 | 0.53 | 1.03 | 0.53 | 0.078 | 0.078 | <0.281 | 0.25 µg/mL | fractional inhibitory concentration index (FICI) (Acinetobacter baumannii [23]): 1.25; fractional inhibitory concentration index (FICI) (Acinetobacter baumannii [24]): 0.75; MIC (Escherichia coli [25]): 0.125 µg/mL; fractional inhibitory concentration index (FICI) (Escherichia coli [26]): 0.5; MIC (Escherichia coli [27]): 1 µg/mL; fractional inhibitory concentration index (FICI) (Klebsiella pneumoniae [28]): <0.516; fractional inhibitory concentration index (FICI) (Klebsiella pneumoniae [29]): <0.375; fractional inhibitory concentration index (FICI) (Enterobacter cloacae [30]): 0.5; hemolysis at 1 h, 1024 ug/ml [31]: < 2%; fractional inhibitory concentration index (FICI) (Escherichia coli [32]): 0.75; MIC (Acinetobacter baumannii [33]): 64 µg/mL; MIC (Enterobacter cloacae [34]): 16 µg/mL; Activity (Pseudomonas aeruginosa [35]): Dose-dependent effect
